From US6410529B1, “Phenyl urea and phenyl thiourea derivatives as HFGAN72 antagonists” (SmithKline Beecham p.l.c., priority 1997, dated 2002)
Counter-ions that a name gives are not always drawn.

molecular target: T1, human HFGAN72 receptor (Homo sapiens, UniProt O43613); assay: HFGAN72 receptor antagonist activity, FLIPR intracellular calcium assay against human Lig 72A; format: cell-based; details: HEK293 cells expressing human HFGAN72 receptor; against 3.0 nM human Lig 72A; Kb=IC50/(1+([3/EC50])
T1 construct: expressed in transfected cells; host or cells: HEK293
T1 sequence (O43613 1-425): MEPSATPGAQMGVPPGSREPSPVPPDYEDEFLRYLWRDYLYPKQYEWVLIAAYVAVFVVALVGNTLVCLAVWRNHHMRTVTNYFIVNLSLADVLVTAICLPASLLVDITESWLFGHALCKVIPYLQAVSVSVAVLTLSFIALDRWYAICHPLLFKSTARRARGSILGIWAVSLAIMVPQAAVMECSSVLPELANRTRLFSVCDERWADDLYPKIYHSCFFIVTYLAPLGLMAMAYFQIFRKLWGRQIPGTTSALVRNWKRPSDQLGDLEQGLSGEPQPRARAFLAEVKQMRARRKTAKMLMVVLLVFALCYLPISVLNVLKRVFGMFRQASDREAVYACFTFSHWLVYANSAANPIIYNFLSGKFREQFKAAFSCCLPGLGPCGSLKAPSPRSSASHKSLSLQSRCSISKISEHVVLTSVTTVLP
Experimental: The HFGAN72 receptor antagonist activity of the compounds of formula (I), including those compounds in which X and Y both represent CH and without provisos a)-f), was determined in accordance with the following experimental method.
HEK293 cells expressing the human HFGAN72 receptor were grown in cell medium (MEM medium with Earl's salts) containing 2 mM L-Glutamine, 0.4 mg/mL G418 Sulphate from GIBCO BRL and 10% heat inactivated fetal calf serum from Gibco BRL. The cells were seeded at 20,000 cells/100 μl/well into 96-well black clear bottom sterile plates from Costar which had been pre-coated with 10 μg/well of poly-L-lysine from SIGMA. The seeded plates were incubated overnight at 37° C. in 5% CO2.
Agonists were prepared as 1 mM stocks in water:DMSO (1:1). EC50 values (the concentration required to produce 50% maximal response) were estimated using 11× half log unit dilutions (Biomek 2000, Beckman) in Tyrode's buffer containing probenecid (10 mM HEPES with 145 mM NaCl, 10 mM glucose, 2.5 mM KCl, 1.5 mM CaCl2, 1.2 mM MgCl2 and 2.5 mM probenecid; pH7.4). […] On the day of assay 50 μl of cell medium containing probenecid (Sigma) and Fluo3AM (Texas Fluorescence Laboratories) was added (Quadra, Tomtec) to each well to give final concentrations of 2.5 mM and 4 μM, respectively. […] Cell plates were then transferred to the Fluorescent Imaging Plate Reader (FLIPR, Molecular Devices) instrument and maintained at 37° C. in humidified air. […] Agonists were added (by the FLIPR) after 20 sec (during continuous reading). From each well, peak fluorescence was determined over the whole assay period and the mean of readings 1-19 inclusive was subtracted from this figure. The peak increase in fluorescence was plotted against compound concentration and iteratively curve fitted using a four parameter logistic fit (as described by Bowen and Jerman, 1995, TiPS, 16, 413-417) to generate a concentration effect value. Antagonist Kb values were calculated using the equation: […]
where EC50 was the potency of human Lig72A determined in the assay (in nM terms) and IC50 is expressed in molar terms.

Kb, < 100 nM:
Cn1ccc2cc(NC(=O)Nc3ccnc4ccccc34)ccc21 [Example 1, 1-(1-Methyl-1H-indol-5-yl)-3-quinolin-4-ylurea]
CSc1ccc(NC(=O)Nc2ccnc3ccccc23)cc1 [Example 14, 1-(4-Methylthiophenyl)-3-quinolin-4-ylurea hydrochloride]
COc1ccc(NC(=O)Nc2ccnc3ccccc23)cc1Cl [Example 31, 1-(3-Chloro-4-methoxyphenyl)-3-quinolin-4-ylurea hydrochloride]
